Structures are written as SMILES. Where a name gives a salt, the structure may show the parent alone. Where only a bound is given, the exact number is not on record here.

Data set [1] is described as follows: NOHA stability analysis by ELISA, in vitro medium spiked with NOHA. As to conditions: medium spiked with 75 pg/ml NOHA. In kind it is physicochemical. The procedure: FIG. 6A presents an In Vitro medium NOHA stability analysis based on incubation duration and temperature condition for up to 6 weeks. n=4.
ELISA Method. 50 μl of NOHA standard sample concentration prepared in Locke's buffer (viz., 10 mM HEPES, 5.6 mM KCl, 154 mM NaCl, 5.6 mM glucose, 1.2 mM MgCl2, 2.3 mM CaCl2, pH 7.4) was mixed with 50 μl of primary NOHA antibody serum (at 1:200 dilution, Pierce Thermo Fisher) and incubated for 30 min at 4° C. The mixture was added to a 96 well plate pre-coated with […] (at 100 pg/ml concentration, in Locke's buffer). The plate was then incubated for 1 hour on a plate-rotator at 500 rpm, at 2-8° C. After incubation, the well content was aspirated, and the wells were washed three times with 200 μl ice-cold wash buffer (10 mM phosphate buffer pH 7.4, 150 mM NaCl, 0.05% Tween 20). 100 μl of enzyme conjugated secondary antibody (at 1:20,000 dilution in wash buffer) was added, and incubated for 1 hour on a plate rotator at 500 rpm, at 2-8° C. At the end of this incubation, the wells were washed again three times with 200 μl ice-cold wash buffer. […] The plates were then read at 450 nm, within 10 min after adding stop solution.
In vitro medium. To analyze NOHA stability via ELISA assay, medium was spiked with 75 pg/ml of NOHA and NOHA recovery was determined over 6 weeks at different temperatures (viz., −80° C., −20° C., 4° C., 25° C., 37° C. and 42° C.). […]

A short description of data set [2]: NOHA stability analysis over temperature in extracellular matrix medium of 3D spheroids, LC-MS. Format: physicochemical. The procedure: Extracellular matrix medium from cancerous and non-cancerous 3D spheroid (viz., 300 μl/spheroid cell line), that was collected on day 7 after spheroid formation were divided in to six (6) equal volumes of 50 μl each. Each of the 50-μl fractions/spheroid cell lines were incubated at −80° C., −20° C., 4° C., 25° C., 37° C. and 42° C. for 1, 3, 5, 7, 10, 12, and 14 days. At the end of the incubation, NOHA level was monitored by LC-MS (Tables 4.1-4.6).
Those medium samples that were incubated at higher temperature of 42° C. suffered the most with NOHA stability, which lasted for only 3 days (Table 4.4).
Tables 4.1-4.6: NOHA measurements after incubation at various temperatures

Another data set has as its system ER− 3D spheroids. Description: Medium NOHA level of 3D spheroids by ELISA in the presence of inhibitors. Format: cell-based. The procedure: FIGS. 8A-8D present an analysis of medium NOHA level by ELISA in the presence or absence of inhibitors.
The following inhibitory tests were performed to determine their role (and/or regulatory effect) on extra-tumoral NOHA accumulation. While NOHA is generated by NOS2 during nitric oxide production, it can be utilized in a NOS2 independent mechanism for nitric oxide generation, that could involve myeloperoxidase (MPO) mediated oxidation or cytochrome P450 reductase mediated pathway.

In data set [3] the test system is MPO, Cytochrome P450 reductase. Description: MPO and Cytochrome P450 reductase expression and activity after Arginase activity inhibition. Format: cell-based. As to conditions: after Arginase activity inhibition with 5 nM ABH. From the text: FIG. 12A and FIG. 12B present analysis of cytochrome P450 reductase; FIG. 12A presents a graph showing expression; FIG. 12B presents a graph showing activity. #, represents significance from ER+ and control groups; and ^, represents significance from ER−[CA] groups. n=4. P<0.01
FIG. 13A and FIG. 13B present analysis of MPO; FIG. 13A presents a graph showing expression; FIG. 13B presents a graph showing activity. #, represents significance from ER+ and control groups; and ^, represents significance from ER−[CA] groups. n=4. P<0.01.
The following inhibitory tests were performed to determine their role (and/or regulatory effect) on extra-tumoral NOHA accumulation. While NOHA is generated by NOS2 during nitric oxide production, it can be utilized in a NOS2 independent mechanism for nitric oxide generation, that could involve myeloperoxidase (MPO) mediated oxidation or cytochrome P450 reductase mediated pathway. Since NOHA is known to be a strong inhibitor of Arginase, and Arginase increase would favor tumor proliferation, the role of Arginase was also explored.

As for `NC(=NCCC[C@H](N)C(=O)O)NO` [NOHA, N^w-hydroxy-L-Arginine], the “period over which NOHA was stable” value in data set [1] (4° C. and below (4, −20, −80° C.)) turned out to be 6 week. Moreover, the “period over which NOHA maintained stability” value in data set [1] (25° C., 37° C. and 42° C.) came out at 1 week. The “degradation or reduction in NOHA level” value in data set [2] (extracellular matrix medium at 4° C., −20° C., and −80° C., 14-day incubation) is reported as “no significant degradation or reduction”. The “duration of stable NOHA monitoring level” value in data set [2] (medium samples incubated at 25° C.) amounted to 12 days. In addition, the “duration of NOHA stability” value in data set [2] (medium samples incubated at 42° C.) was determined as 3 days. Moreover, in data set [2] (medium samples stored at 37° C.), the “duration of stable NOHA monitoring” value is listed as “up to 7 days”.

For the compound `N[C@@H](CCCCB(O)O)C(=O)O` [ABH, 2(s)-amino-6-boronohexanoic acid], the “change in medium NOHA level” value in the data set on ER− 3D spheroids (5 nM ABH, versus absence of ABH) was “no significant disease specific or ethnic specific change”. In addition, in data set [3], the “increase in Cytochrome P450 reductase expression and activity” value is no less than 0.98; the “increase in MPO expression and activity” value is on record as no less than 1.2 fold.

For the compound `Clc1ccc(COC(Cn2ccnc2)c2ccc(Cl)cc2Cl)c(Cl)c1` (centres unmarked) [micronazole salt], the “increase in medium NOHA level” value in the data set with ER− 3D spheroids (ER−[AA], 10 μM inhibitor, over a 9 week period) was no less than 0.79 fold. Also, in the data set with ER− 3D spheroids (ER−[CA], 10 μM inhibitor, over a 9 week period), the “NOHA increase in the medium” value is recorded as no less than 0.42 fold.

(Values after patent US10073099B2, “Methods and diagnostics for cancer detection and treatment monitoring” (University of New England, priority 2015, dated 2018).)
